# According to US20090143279A1 (priority 2007, published 2009):
# Like-named read-outs stand apart in the source and are kept apart here.
# What was measured:
# nuOXPHOS transcripts = type: cell-based, mouse
# OXPHOS gene expression = type: cell-based, mouse
# mtOXPHOS transcripts = type: cell-based, mouse
# [1] = system: mitochondrial membrane potential; type: cell-based, mouse
# reactive oxygen species = type: cell-based, mouse
# cytochrome c = type: cell-based, mouse
# [2] = system: cellular dehydrogenase activity
# [3] = Conc 20 μM, normalized score vs mock-treated (DMSO) wells
# [4] = composite Z-score vs DMSO, Conc 20 μM
# [5] = Table 5, C2C12 myotubes, 48 h, composite Z-score
# [6] = 20 μM, composite Z-score vs DMSO
# [7] = composite Z-score vs DMSO wells, Conc 20 μM
# [8] = composite Z-score vs DMSO, Conc 8.66 μM
# [9] = composite Z-score vs DMSO, Conc 11.16 μM
# [10] = composite Z-score vs mock-treated (DMSO) wells, Conc 20 μM
smiles,measurement,setting,value
CNC[C@H](O)c1cccc(O)c1 [phenylephrine],nucOX,nuOXPHOS transcripts,0.120
same,GE-HTS,OXPHOS gene expression,0.254
same,Viability,C2C12 myotubes,−0.349
same,mitoOX,mtOXPHOS transcripts,0.536
same,ΔΨm,[1],−0.460
same,ROS,reactive oxygen species,0.474
same,cyt c,cytochrome c,−0.187
same,MTT,[2],1.105
OC[C@H]1O[C@@H](Oc2cc(O)cc(/C=C/c3ccc(O)cc3)c2)[C@H](O)[C@@H](O)[C@@H]1O [piceid],nucOX (composite Z-score),nuOXPHOS transcripts; [3],0.088
same,GE-HTS (composite Z-score),OXPHOS gene expression; [3],0.110
same,Viability (composite Z-score),C2C12 myotubes; [3],−0.341
same,mitoOX (composite Z-score),mtOXPHOS transcripts; [3],0.124
same,ΔΨm (composite Z-score),[1]; [3],0.088
same,ROS (composite Z-score),reactive oxygen species; [3],0.862
same,cyt c (composite Z-score),cytochrome c; [3],0.272
same,MTT (composite Z-score),[2]; [3],−0.826
"COc1cc([C@@H]2c3cc4c(cc3[C@H](O)[C@H]3COC(=O)[C@@H]23)OCO4)cc(OC)c1OC [picropodophyllotoxin, reference compound]",nucOX,nuOXPHOS transcripts; [4],1.581
same,GEHTS_Zscore,OXPHOS gene expression; [5],2.259
same,GE-HTS,OXPHOS gene expression; [4],1.512
same,Viability,C2C12 myotubes; [4],−0.107
same,mitoOX,mtOXPHOS transcripts; [4],1.129
same,ΔΨm,[1]; [4],−0.349
same,ROS Zscore,reactive oxygen species; [5],−1.202
same,ROS,reactive oxygen species; [4],−1.202
same,cyt c,cytochrome c; [4],−1.445
same,MTT,[2]; [4],−2.402
CC(C)(O)[C@@H]1[C@H]2OC(=O)[C@@H]1[C@]1(O)C[C@H]3O[C@]34C(=O)O[C@H]2[C@]14C [picrotin],nucOX,nuOXPHOS transcripts; [6],0.404
same,GE-HTS,OXPHOS gene expression; [6],0.253
same,Viability,C2C12 myotubes; [6],−0.278
same,mitoOX,mtOXPHOS transcripts; [6],−0.167
same,ΔΨm,[1]; [6],−0.167
same,ROS,reactive oxygen species; [6],0.917
same,cyt c,cytochrome c; [6],0.184
same,MTT,[2]; [6],−1.155
C=C(C)[C@@H]1[C@H]2OC(=O)[C@@H]1[C@]1(O)C[C@H]3O[C@]34C(=O)O[C@H]2[C@]14C [picrotoxinin],nucOX,nuOXPHOS transcripts; [7],−0.408
same,GE-HTS,OXPHOS gene expression; [7],−0.512
same,Viability,C2C12 myotubes; [7],−1.116
same,mitoOX,mtOXPHOS transcripts; [7],−0.551
same,ΔΨm,[1]; [7],−1.064
same,ROS,reactive oxygen species; [7],1.094
same,cyt c,cytochrome c; [7],0.172
same,MTT,[2]; [7],−1.611
O=c1[nH]c2ccccc2n1C1CCN(CCCC(c2ccc(F)cc2)c2ccc(F)cc2)CC1 [pimozide],nucOX,nuOXPHOS transcripts; [8],−0.438
same,nucOX,nuOXPHOS transcripts; [4],0.857
same,GE-HTS,OXPHOS gene expression; [8],−0.548
same,GE-HTS,OXPHOS gene expression; [4],0.722
same,Viability,C2C12 myotubes; [8],0.494
same,Viability,C2C12 myotubes; [4],0.146
same,mitoOX,mtOXPHOS transcripts; [8],−0.648
same,mitoOX,mtOXPHOS transcripts; [4],0.386
same,ΔΨm,[1]; [8],−0.170
same,ΔΨm,[1]; [4],−0.381
same,ROS,reactive oxygen species; [8],2.196
same,ROS,reactive oxygen species; [4],1.432
same,cyt c,cytochrome c; [8],−0.531
same,cyt c,cytochrome c; [4],−0.121
same,MTT,[2]; [8],−0.375
same,MTT,[2]; [4],−0.447
CC(N/C(=N\C#N)Nc1ccncc1)C(C)(C)C (stereo not drawn) [pinacidil],nucOX,nuOXPHOS transcripts,0.038
same,nucOX,nuOXPHOS transcripts; [4],−0.301
same,GE-HTS,OXPHOS gene expression,−0.146
same,GE-HTS,OXPHOS gene expression; [4],−0.515
same,Viability,C2C12 myotubes,−0.477
same,Viability,C2C12 myotubes; [4],−0.062
same,mitoOX,mtOXPHOS transcripts,−0.498
same,mitoOX,mtOXPHOS transcripts; [4],−0.814
same,ΔΨm,[1],−0.614
same,ΔΨm,[1]; [4],−0.949
same,ROS,reactive oxygen species,0.383
same,ROS,reactive oxygen species; [4],0.655
same,cyt c,cytochrome c,0.027
same,cyt c,cytochrome c; [4],1.030
same,MTT,[2],−0.889
same,MTT,[2]; [4],−0.142
CCn1cc(C(=O)O)c(=O)c2cnc(N3CCNCC3)nc21 [pipemidic acid],nucOX,nuOXPHOS transcripts; [7],0.264
same,GE-HTS,OXPHOS gene expression; [7],0.045
same,Viability,C2C12 myotubes; [7],−0.716
same,mitoOX,mtOXPHOS transcripts; [7],−0.333
same,ΔΨm,[1]; [7],−0.736
same,ROS,reactive oxygen species; [7],0.010
same,cyt c,cytochrome c,0.101
same,cyt c,cytochrome c; [7],0.140
same,MTT,[2]; [7],−0.367
CC[N+]1(C)CCCC(OC(=O)C(O)(c2ccccc2)c2ccccc2)C1 (stereo not drawn) [pipenzolate],nucOX,nuOXPHOS transcripts; [7],−0.411
same,GE-HTS,OXPHOS gene expression; [7],−0.495
same,Viability,C2C12 myotubes; [7],0.001
same,mitoOX,mtOXPHOS transcripts; [7],−0.569
same,ΔΨm,[1]; [7],−0.205
same,ROS,reactive oxygen species; [7],0.166
same,cyt c,cytochrome c,0.192
same,cyt c,cytochrome c; [7],−0.954
same,MTT,[2]; [7],0.060
CCN1CCN(C(=O)N[C@@H](C(=O)N[C@@H]2C(=O)N3[C@@H]2SC(C)(C)[C@@H]3C(=O)O)c2ccccc2)C(=O)C1=O [piperacillin],nucOX,nuOXPHOS transcripts; [4],−0.339
same,GE-HTS,OXPHOS gene expression; [4],−0.548
same,Viability,C2C12 myotubes; [4],−0.990
same,mitoOX,mtOXPHOS transcripts; [4],−0.857
same,ΔΨm,[1]; [4],−0.150
same,ROS,reactive oxygen species; [4],0.645
same,cyt c,cytochrome c; [4],0.544
same,MTT,[2]; [4],−1.188
O=C(CCBr)N1CCN(C(=O)CCBr)CC1 [pipobroman],nucOX,nuOXPHOS transcripts,−0.918
same,GE-HTS,OXPHOS gene expression,−1.074
same,Viability,C2C12 myotubes,−0.792
same,mitoOX,mtOXPHOS transcripts,−1.219
same,ΔΨm,[1],−0.580
same,ROS,reactive oxygen species,0.342
same,cyt c,cytochrome c,0.441
same,MTT,[2],−1.907
Nc1ccc(C(=O)[O-])cc1.[K+] [potassium p-aminobenzoate],nucOX,nuOXPHOS transcripts; [6],−1.085
same,GE-HTS,OXPHOS gene expression; [6],−1.001
same,Viability,C2C12 myotubes; [6],−0.277
same,mitoOX,mtOXPHOS transcripts; [6],−0.673
same,ΔΨm,[1]; [6],−0.826
same,ROS,reactive oxygen species; [6],0.818
same,cyt c,cytochrome c; [6],0.519
same,MTT,[2]; [6],−1.445
C[C@]12C=CC(=O)C=C1CC[C@@H]1[C@@H]2C(=O)C[C@@]2(C)[C@H]1CC[C@]2(O)C(=O)CO [prednisone],nucOX,nuOXPHOS transcripts; [7],−0.177
same,nucOX,nuOXPHOS transcripts; [9],−0.432
same,GE-HTS,OXPHOS gene expression; [7],−0.290
same,GE-HTS,OXPHOS gene expression; [9],−0.315
same,Viability,C2C12 myotubes; [7],−0.474
same,Viability,C2C12 myotubes; [9],−1.668
same,mitoOX,mtOXPHOS transcripts; [7],−0.473
same,mitoOX,mtOXPHOS transcripts; [9],−0.048
same,ΔΨm,[1]; [7],0.258
same,ΔΨm,[1]; [9],−0.474
same,ROS,reactive oxygen species; [7],0.253
same,ROS,reactive oxygen species; [9],0.623
same,cyt c,cytochrome c; [7],−0.034
same,cyt c,cytochrome c; [9],−0.428
same,MTT,[2]; [7],−1.054
same,MTT,[2]; [9],−1.206
CC(C)=CCOc1cc2oc(=O)ccc2cc1O [prenyletin],nucOX,nuOXPHOS transcripts; [10],−0.015
same,GE-HTS,OXPHOS gene expression; [10],0.113
same,Viability,C2C12 myotubes; [10],0.919
same,mitoOX,mtOXPHOS transcripts; [10],0.282
same,ΔΨm,[1]; [10],0.772
same,ROS,reactive oxygen species; [10],−0.090
same,cyt c,cytochrome c; [10],0.150
same,MTT,[2]; [10],−1.166
CCCC(C(=O)OCCN(CC)CC)(c1ccccc1)c1ccccc1 [proadifen],nucOX,nuOXPHOS transcripts,−0.414
same,nucOX,nuOXPHOS transcripts; [6],−0.243
same,GE-HTS,OXPHOS gene expression,−0.364
same,GE-HTS,OXPHOS gene expression; [6],−0.377
same,Viability,C2C12 myotubes,−0.388
same,Viability,C2C12 myotubes; [6],−1.715
same,mitoOX,mtOXPHOS transcripts,−0.201
same,mitoOX,mtOXPHOS transcripts; [6],−0.595
same,ΔΨm,[1],−0.557
same,ΔΨm,[1]; [6],−0.654
same,ROS,reactive oxygen species,0.616
same,ROS,reactive oxygen species; [6],0.678
same,cyt c,cytochrome c,0.223
same,cyt c,cytochrome c; [6],−0.077
same,MTT,[2],−1.220
same,MTT,[2]; [6],−1.808
CC(C)(Sc1cc(C(C)(C)C)c(O)c(C(C)(C)C)c1)Sc1cc(C(C)(C)C)c(O)c(C(C)(C)C)c1 [probucol],nucOX,nuOXPHOS transcripts; [7],−0.002
same,GE-HTS,OXPHOS gene expression; [7],−0.053
same,Viability,C2C12 myotubes; [7],−0.586
same,mitoOX,mtOXPHOS transcripts; [7],−0.136
same,ΔΨm,[1]; [7],−0.142
same,ROS,reactive oxygen species; [7],0.464
same,cyt c,cytochrome c,−0.232
same,cyt c,cytochrome c; [7],−0.180
same,MTT,[2]; [7],−1.114
CCCN(CCC)C(=O)C(CCC(=O)O)NC(=O)c1ccccc1 (stereo not drawn) [proglumide],nucOX,nuOXPHOS transcripts; [6],−0.394
same,GE-HTS,OXPHOS gene expression; [6],−0.541
same,Viability,C2C12 myotubes; [6],−0.750
same,mitoOX,mtOXPHOS transcripts; [6],−0.730
same,ΔΨm,[1]; [6],−0.910
same,ROS,reactive oxygen species; [6],2.083
same,cyt c,cytochrome c,−0.001
same,cyt c,cytochrome c; [6],−0.033
same,MTT,[2]; [6],−1.254
